Entries after “also recorded” stand apart in the source; their conditions may differ. Like-named read-outs stand apart in the source and are kept apart here.
How the values were obtained:
PqsR [1] = target: T1, PqsR (Pseudomonas aeruginosa, UniProt Q9I4X0); assay: cell-based; set-up: assayed for their agonist and antagonist activities in a whole P. aeruginosa bacterial cell assay; endogenous in cells; host or cells: P. aeruginosa PAO1 wild type, ΔpqsA or ΔpqsAH strains carrying a chromosomal (mini)CTX::pqsA'-lux fusion; details: for Agonist activity on PqsR (in words): pqsA'-lux reporter
T1 sequence (Q9I4X0 1-332): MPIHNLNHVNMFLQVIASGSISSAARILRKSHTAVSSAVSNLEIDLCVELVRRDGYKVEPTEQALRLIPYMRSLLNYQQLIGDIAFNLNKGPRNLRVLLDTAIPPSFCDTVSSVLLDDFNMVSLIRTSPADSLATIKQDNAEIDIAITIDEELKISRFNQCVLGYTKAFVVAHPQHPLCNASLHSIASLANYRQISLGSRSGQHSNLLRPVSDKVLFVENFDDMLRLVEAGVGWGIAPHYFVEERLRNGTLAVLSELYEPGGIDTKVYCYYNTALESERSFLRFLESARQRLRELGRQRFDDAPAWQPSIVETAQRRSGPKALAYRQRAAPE

PqsR [2] = target: T1, PqsR; assay: cell-based; set-up: assayed for their agonist and antagonist activities in a whole P. aeruginosa bacterial cell assay; endogenous in cells; host or cells: P. aeruginosa PAO1 wild type, ΔpqsA or ΔpqsAH strains carrying a chromosomal (mini)CTX::pqsA'-lux fusion; details: for Antagonist activity on PqsR (in words): pqsA'-lux reporter; for IC50: Figure 6 (QZNs), P. aeruginosa wild type strain with miniCTX::pqsA'-lux fusion, read-out: Antagonist IC50±SD
P. aeruginosa = assay: Bacterial growth in the reporter assays; assay type: cell-based, Pseudomonas aeruginosa
Description: The impact of the AQs and QZNs on PqsR-dependent gene expression in P. aeruginosa was evaluated using lux-based pqsA, lecA and phzA1 promoter fusions (Table S1) in 96-well microtiter plates as described before,[23]. Bioluminescence and bacterial growth were quantified using a combined luminometer-spectrometer (Tecan GENios Pro). Where required, AQs or QZNs were added to reporter strains and EC50 or IC50 values were extracted from the sigmoidal dose–response curves obtained using Prism2 (Graphpad, San Diego, USA).

[3] = MeOH stock at a workable concentration
PqsR [4] = target: T1, PqsR; assay: cell-based; set-up: assayed for their agonist and antagonist activities in a whole P. aeruginosa bacterial cell assay; endogenous in cells; host or cells: P. aeruginosa PAO1 wild type, ΔpqsA or ΔpqsAH strains carrying a chromosomal (mini)CTX::pqsA'-lux fusion; details: Figure 2 (AQs); P. aeruginosa ΔpqsAH CTX::pqsA'-lux strain; read-out: Agonist EC50 ±SD
PqsR [5] = target: T1, PqsR; set-up: assayed for their agonist and antagonist activities in a whole P. aeruginosa bacterial cell assay; endogenous in cells; host or cells: P. aeruginosa PAO1 wild type, ΔpqsA or ΔpqsAH strains carrying a chromosomal (mini)CTX::pqsA'-lux fusion; method as in PMID 17922753; details: cited from earlier work; for Activation of PqsR (in words): dependence on alkyl chain length
AQ biosynthesis = system: AQ biosynthesis; set-up: method as in PMID 17941706; details: cited from earlier work
PqsR Leu207Glu = PqsR Leu207Glu (Pseudomonas aeruginosa, UniProt Q9I4X0, L207E); assay: Response of PqsR-6His ligand binding site variants to PQS and HHQ, pqsA'-lux in ΔpqsA ΔpqsH ΔpqsR strain; assay type: cell-based; details: Leu207Glu mutation; co-inducer 40 µM
[6] = Figure 6 (QZNs), P. aeruginosa ΔpqsA miniCTX::pqsA'-lux strain, read-out: Agonist EC50±SD
[7] = Figure 2 (AQs), P. aeruginosa ΔpqsA CTX::pqsA'-lux strain, read-out: Agonist EC50 ±SD

For `CCCCCCCCCc1nc2cc(F)c(F)cc2c(=O)n1OC` [compound 17], the EC50 (PqsR [1]; [6]) was 53.6 ± 13.7 µM and the “Reduction of agonist potency relative to 3-OMe-7F-C9-QZN” value (PqsR [1]; second fluorine introduced) was ~25 fold.
For `CCCCCCCCCc1nc2cc(F)ccc2c(=O)n1O` [compound 12], the EC50 (PqsR [1]; [6]) was 21 ± 5.5 µM and the “Agonist activity on PqsR (in words)” value (PqsR [1]) was “totally devoid of agonist activity”.
With `CCCCOCCOCc1nc2ccccc2c(=O)n1N` [compound 32] the “Antagonist activity on PqsR (in words)” value (PqsR [2]) was “all inactive”.
In the case of `CCCCCCCCCc1nc2cc(Cl)ccc2c(=O)n1CCN` [compound 37], the Growth inhibition (P. aeruginosa) is reported as “exhibited growth inhibition” and the melting point is reported as 69 to 72 °C.
For `CCCCCCCc1[nH]c2cc(Cl)ccc2c(=O)c1O` [compound 5], the EC50 (PqsR [1]; [7]) was 0.014 ± 0.005 µM and the “Agonist potency relative to PQS” value (PqsR [1]; in P. aeruginosa, from Figure 2 EC50s) was ~135 times.
With `CCCCCCCCCc1nc2ccccc2c(=O)n1CCN` [compound 35] the Growth inhibition (P. aeruginosa) was “exhibited growth inhibition”, the melting point was 77 to 81 °C and the “Antagonist activity on PqsR (in words)” value (PqsR [2]) was “inactive or weak antagonists”.
In the case of `NCCn1c(CCCc2ccccc2)nc2cc(Cl)ccc2c1=O` [compound 39], the Growth inhibition (P. aeruginosa) is reported as “exhibited growth inhibition” and the IC50 (PqsR [2]) is reported as 79.2 ± 2.7 µM.
In the case of `Nn1c(CCc2c[nH]c3ccccc23)nc2cc(Cl)ccc2c1=O` [compound 43], the “Solubility (in words)” value [3] is reported as “did not dissolve in MeOH at a workable concentration”.
Compound `CCCCCCCCCc1nc2cc(F)ccc2c(=O)n1OC` [compound 16] has an EC50 (PqsR [1]; [6]) of 2.2 µM.
With `CCCCCCCCCc1nc2cc(F)c(F)cc2c(=O)n1N` [compound 26] the IC50 (PqsR [2]) was 1.2 ± 0.4 µM.
In the case of `CCCCCCCCCc1nc2ncccc2c(=O)n1N` [compound 47], the “Antagonist activity on PqsR (in words)” value (PqsR [2]) is reported as “complete loss of activity”.
For `CC(C)CCCCCCc1nc2ccccc2c(=O)n1N` [compound 30], the “Antagonist activity on PqsR (in words)” value (PqsR [2]) was “all inactive”.
In the case of `CCCCCCCCCc1nc2ccccc2c(=O)n1NC(C)=O` [compound 33], the “Antagonist activity on PqsR (in words)” value (PqsR [2]) is reported as “inactive or weak antagonists”.
In the case of `Nn1c(CCCC2CCCCC2)nc2ccccc2c1=O` [compound 46], the “Solubility (in words)” value [3] is reported as “barely soluble”.
With `CCCCCCCCCc1nc2ccccc2c(=O)n1OC` [compound 14] the “Agonist activity on PqsR (in words)” value (PqsR [1]) was “inactive”.
Work on `CCCCCCCc1[nH]c2ccccc2c(=O)c1N` [5a] yielded an EC50 (PqsR [1]; [7]) of 0.4 ± 0.15 µM.
For `CCCCCC(C)CCc1nc2ccccc2c(=O)n1N` (stereo not shown) [compound 29], the “Antagonist activity on PqsR (in words)” value (PqsR [2]) was “all inactive”.
In the case of `CCCCCCCCCc1nc2ccccc2c(=O)n1N` [compound 20], the “Agonist activity on PqsR (in words)” value (PqsR [1]) is reported as “None of these compounds were agonists” and the IC50 (PqsR [2]) is reported as 77.2 ± 1 µM.
With `CCCCCCCCCc1nc2ccc(Cl)cc2c(=O)n1N` [compound 22] the “Antagonist activity on PqsR (in words)” value (PqsR [2]) was “complete loss of antagonist activity”.
In the case of `Nn1c(CCCc2ccccc2)nc2cc(Cl)ccc2c1=O` [compound 41], the IC50 (PqsR [2]) is reported as 39.6 ± 11 µM.
For `CCCCCCCCCc1nc2ccc(Cl)cc2c(=O)n1CCN` [compound 36], the Growth inhibition (P. aeruginosa) was “exhibited growth inhibition” and the melting point was 72 to 74 °C.
With `CCCCCCCc1nc2ccccc2c(=O)[nH]1` [C7-QZN] the “Agonist activity on PqsR (in words)” value (PqsR [1]) was “devoid of agonist or antagonist activity” and the “Antagonist activity on PqsR (in words)” value (PqsR [2]) was “devoid of agonist or antagonist activity”.
In the case of `CCCCCCCc1nc2ccccc2c(=O)n1O` [compound 9], the EC50 (PqsR [1]; [6]) is reported as 54 ± 6.6 µM and the “Agonist activity on PqsR (in words)” value (PqsR [1]) is reported as “partial agonists”.
In the case of `CCCCCCCCCCCc1nc2ccccc2c(=O)n1N` [compound 21], the “Agonist activity on PqsR (in words)” value (PqsR [1]) is reported as “None of these compounds were agonists” and the IC50 (PqsR [2]) is reported as 210 ± 77 µM.
With `CCCCCCCCCc1nc2cc(F)ccc2c(=O)[nH]1` [7F-C9-QZN] the “Agonist activity on PqsR (in words)” value (PqsR [1]) was “devoid of agonist or antagonist activity”, the “Agonist activity on PqsR (in words)” value (PqsR [1]; listed as 8) was “partial agonists” and the “Antagonist activity on PqsR (in words)” value (PqsR [2]) was “devoid of agonist or antagonist activity”.
For `CCCCCCCc1nc2ccccc2c(=O)n1N` [compound 19], the “Agonist activity on PqsR (in words)” value (PqsR [1]) was “None of these compounds were agonists” and the IC50 (PqsR [2]) was 54 ± 15.5 µM.
For `CCCCCCCCCc1[nH]c2ccccc2c(=O)c1O` [compound 4, 2-nonyl-3-hydroxy-4(1H)-quinolone], the EC50 (PqsR [1]; [7]) is given as 1.1 ± 0.5 µM, the EC50 (PqsR [4]) is given as 9.1 ± 11.2 µM and the “Activation of PqsR (in words)” value (PqsR [5]) is given as “highly active”.
`CCCCCCCCCc1nc2cc(Cl)ccc2c(=O)n1O` [compound 11] gave an EC50 (PqsR [1]; [6]) of 12.7 ± 7.8 µM.
In the case of `Nc1cc(Cl)ccc1C(=O)O` [4-CABA, 2-amino-4-chorobenzoic acid], the “Concentrations required to inhibit AQ production” value (AQ biosynthesis) is listed as “millimolar range”.
With `Nn1c(Cc2ccc(-c3ccccc3)cc2)nc2cc(Cl)ccc2c1=O` [compound 44] the “Solubility (in words)” value [3] was “did not dissolve in MeOH at a workable concentration”.
In the case of `CCCCCCCCCc1nc2cc(F)ccc2c(=O)n1N` [compound 25], the IC50 (PqsR [2]) is reported as 3.9 ± 1.5 µM.
With `CCCCCCCCCc1nc2ccccc2c(=O)[nH]1` [C9-QZN] the “Agonist activity on PqsR (in words)” value (PqsR [1]) was “devoid of agonist or antagonist activity” and the “Antagonist activity on PqsR (in words)” value (PqsR [2]) was “devoid of agonist or antagonist activity”.
For `CCCCCCCc1cc(O)c2ccccc2n1` [compound 2, 2-heptyl-4-hydroxyquinoline], the “Response, % of pqsA promoter activity with respect to strain expressing PqsR-6His” value (PqsR Leu207Glu) was 5%, the EC50 (PqsR [1]; [7]) was 0.8 ± 0.3 µM and the EC50 (PqsR [4]) was 16.4 ± 2.6 µM. The “EC50 for PqsR-dependent activation of pqsA” value (PqsR [5]; whole P. aeruginosa cell assays) was “low micromolar range”.
With `CCCCCCCCCc1nc2cc(C(F)(F)F)ccc2c(=O)n1N` [compound 27] the “Antagonist activity on PqsR (in words)” value (PqsR [2]) was “complete loss of activity”.
In the case of `CCCCCCCCCc1cc(O)c2ccccc2n1` [compound 3, 2-nonyl-4-hydroxyquinoline], the EC50 (PqsR [1]; [7]) is given as 0.4 ± 0.1 µM, the EC50 (PqsR [4]) is given as 2.5 ± 1.5 µM and the “Activation of PqsR (in words)” value (PqsR [5]) is given as “highly active”.
For `CCCCCCCCCc1nc2cc(Cl)ccc2c(=O)n1CCCN` [compound 38], the Growth inhibition (P. aeruginosa) was “exhibited growth inhibition” and the melting point was 82 to 95 °C.
For `CCCCCCCc1nc2ccccc2c(=O)n1OC` [compound 13], the “Agonist activity on PqsR (in words)” value (PqsR [1]) was “inactive; also recorded: totally devoid of agonist activity”.
In the case of `CCCCCCCCCc1nc2cc(OC)c(OC)cc2c(=O)n1N` [compound 28], the “Antagonist activity on PqsR (in words)” value (PqsR [2]) is reported as “inactive”.
`CCCCCCCCCc1nc2ccccc2c(=O)n1O` [compound 10] gave an EC50 (PqsR [1]; [6]) of 30 ± 3.8 µM.
For `CCCCCCCCCc1nc2cc(Cl)ccc2c(=O)n1OC` [compound 15], the EC50 (PqsR [1]; [6]) was 37.3 ± 6.5 µM.

— publication PMC3723537, “Structural Basis for Native Agonist and Synthetic Inhibitor Recognition by the Pseudomonas aeruginosa Quorum Sensing Regulator PqsR (MvfR)” (PLoS Pathogens, 2013)
